From ChEMBL document CHEMBL1201862, “PubChem BioAssay data set” (2004)
The source made the active and inactive calls.

Legend:
[1] = target: Aspartyl aminopeptidase (Plasmodium falciparum 3D7, UniProt Q8I2J3)
[2] = target: Procathepsin L (Homo sapiens, UniProt P07711)
[3] = NIH-3T3 fibroblast cytotoxicity, dose response, cytotoxicity control, cell-based, fluorescence, Alamar Blue, secondary assay (AID 2327); format: functional;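 note: NIH-3T3 mouse fibroblasts cultured with fluconazole at 8 µg/mL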
[4] = target: Aminopeptidase N (Plasmodium falciparum FcB1/Columbia, UniProt O96935); assay: P. falciparum M1AAP inhibitors, biochemical, fluorogenic H-Leu-NHMec substrate, 1536-well (AID 1445); parameters: species or system Plasmodium falciparum 3D7, 3D7
[5] = C. albicans growth with fluconazole, confirmation, fluorescence, retest (AID 2467); format: functional, cell-based
[6] = target: T1, Serine/threonine-protein phosphatase (Candida dubliniensis (strain CD36 / CBS 7987 / NCPF 3949 / NRRLY-17841) (Yeast), UniProt B9W6M3); assay: calcineurin pathway inhibitors in yeast reporter, dose response, S. cerevisiae, CDRE-lacZ, luminescence, secondary (AID 2388); format: functional, cell-based;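 note: yeast reporter cells carrying a calcineurin-responsive lacZ construct stimulated with calcium chloride; luminescent beta-galactosidase reporter signal in whole cells rather than isolated phosphatase activity; potency for inhibition where a drop in reporter signal means calcineurin blockade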
T1 sequence (B9W6M3 whole entry): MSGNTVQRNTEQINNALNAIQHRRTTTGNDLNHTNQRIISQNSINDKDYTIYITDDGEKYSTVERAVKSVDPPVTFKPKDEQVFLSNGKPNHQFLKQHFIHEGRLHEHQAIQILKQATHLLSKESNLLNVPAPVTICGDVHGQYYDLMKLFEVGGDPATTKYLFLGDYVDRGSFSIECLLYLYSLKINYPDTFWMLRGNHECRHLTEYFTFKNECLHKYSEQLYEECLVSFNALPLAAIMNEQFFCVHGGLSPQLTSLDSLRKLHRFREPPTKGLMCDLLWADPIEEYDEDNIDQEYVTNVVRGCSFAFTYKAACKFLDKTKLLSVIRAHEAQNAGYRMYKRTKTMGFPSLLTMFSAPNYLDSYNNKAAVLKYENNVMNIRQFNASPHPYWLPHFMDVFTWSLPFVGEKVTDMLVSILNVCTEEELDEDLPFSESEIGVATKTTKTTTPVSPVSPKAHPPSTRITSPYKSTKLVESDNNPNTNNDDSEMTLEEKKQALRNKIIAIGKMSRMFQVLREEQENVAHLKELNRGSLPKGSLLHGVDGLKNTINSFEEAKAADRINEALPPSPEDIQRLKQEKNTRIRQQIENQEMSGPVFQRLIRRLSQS

[7] = target: ATP-dependent molecular chaperone HSP82 (Candida albicans (strain WO-1) (Yeast), UniProt C4YTQ8); assay: loss of DOC-induced GRE-beta-galactosidase reporter signal, dose response, Hsp90 inhibitor project, S. cerevisiae, luminescence (AID 2400); format: functional, cell-based;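 note: beta-galactosidase luminescence from glucocorticoid response element reporter as proxy for Hsp90 function; inhibitor potency where signal loss means Hsp90 inhibition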
[8] = A cytotoxicity screen of small molecule inhibitors of the PhoP region in Salmonella typhi identified in the primary screen. [Related pubchem assays: 1850, 1864, 1985 ]; format: functional
[9] = target: T2, Mucolipin-3 (Homo sapiens, UniProt Q8TDD5); assay: Dose response cell-based high-throughput screening assay for agonists of the transient receptor potential channel ML3 (TRPML3). [Related pubchem assays: 1526, 1424, 1448 ]; format: functional
T2 sequence (Q8TDD5 whole entry): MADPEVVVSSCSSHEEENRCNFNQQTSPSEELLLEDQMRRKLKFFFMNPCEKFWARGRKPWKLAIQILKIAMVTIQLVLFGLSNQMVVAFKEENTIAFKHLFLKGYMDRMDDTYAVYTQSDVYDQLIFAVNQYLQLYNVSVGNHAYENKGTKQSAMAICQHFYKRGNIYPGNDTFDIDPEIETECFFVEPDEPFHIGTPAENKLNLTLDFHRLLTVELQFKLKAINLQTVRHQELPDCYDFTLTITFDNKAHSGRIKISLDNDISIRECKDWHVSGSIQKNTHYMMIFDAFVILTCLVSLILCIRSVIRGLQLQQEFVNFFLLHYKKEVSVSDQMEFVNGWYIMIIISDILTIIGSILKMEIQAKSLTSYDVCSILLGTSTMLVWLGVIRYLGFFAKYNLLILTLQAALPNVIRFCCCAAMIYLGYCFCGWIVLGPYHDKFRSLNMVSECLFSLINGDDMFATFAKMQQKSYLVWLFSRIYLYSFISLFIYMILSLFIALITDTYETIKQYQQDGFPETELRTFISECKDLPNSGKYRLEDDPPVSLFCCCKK

[10] = target: Ion channel NompC (Danio rerio, UniProt Q7T1G6); assay: Fluorescence counterscreen assay for TRPML3 agonists: dose response cell-based high-throughput screening assay to identify agonists of the transient receptor potential channel N1 (TRPN1). [Related pubchem assays: 1526, 1424, 1448 ]; format: functional
Ion channel NompC, sequence (Q7T1G6 whole entry): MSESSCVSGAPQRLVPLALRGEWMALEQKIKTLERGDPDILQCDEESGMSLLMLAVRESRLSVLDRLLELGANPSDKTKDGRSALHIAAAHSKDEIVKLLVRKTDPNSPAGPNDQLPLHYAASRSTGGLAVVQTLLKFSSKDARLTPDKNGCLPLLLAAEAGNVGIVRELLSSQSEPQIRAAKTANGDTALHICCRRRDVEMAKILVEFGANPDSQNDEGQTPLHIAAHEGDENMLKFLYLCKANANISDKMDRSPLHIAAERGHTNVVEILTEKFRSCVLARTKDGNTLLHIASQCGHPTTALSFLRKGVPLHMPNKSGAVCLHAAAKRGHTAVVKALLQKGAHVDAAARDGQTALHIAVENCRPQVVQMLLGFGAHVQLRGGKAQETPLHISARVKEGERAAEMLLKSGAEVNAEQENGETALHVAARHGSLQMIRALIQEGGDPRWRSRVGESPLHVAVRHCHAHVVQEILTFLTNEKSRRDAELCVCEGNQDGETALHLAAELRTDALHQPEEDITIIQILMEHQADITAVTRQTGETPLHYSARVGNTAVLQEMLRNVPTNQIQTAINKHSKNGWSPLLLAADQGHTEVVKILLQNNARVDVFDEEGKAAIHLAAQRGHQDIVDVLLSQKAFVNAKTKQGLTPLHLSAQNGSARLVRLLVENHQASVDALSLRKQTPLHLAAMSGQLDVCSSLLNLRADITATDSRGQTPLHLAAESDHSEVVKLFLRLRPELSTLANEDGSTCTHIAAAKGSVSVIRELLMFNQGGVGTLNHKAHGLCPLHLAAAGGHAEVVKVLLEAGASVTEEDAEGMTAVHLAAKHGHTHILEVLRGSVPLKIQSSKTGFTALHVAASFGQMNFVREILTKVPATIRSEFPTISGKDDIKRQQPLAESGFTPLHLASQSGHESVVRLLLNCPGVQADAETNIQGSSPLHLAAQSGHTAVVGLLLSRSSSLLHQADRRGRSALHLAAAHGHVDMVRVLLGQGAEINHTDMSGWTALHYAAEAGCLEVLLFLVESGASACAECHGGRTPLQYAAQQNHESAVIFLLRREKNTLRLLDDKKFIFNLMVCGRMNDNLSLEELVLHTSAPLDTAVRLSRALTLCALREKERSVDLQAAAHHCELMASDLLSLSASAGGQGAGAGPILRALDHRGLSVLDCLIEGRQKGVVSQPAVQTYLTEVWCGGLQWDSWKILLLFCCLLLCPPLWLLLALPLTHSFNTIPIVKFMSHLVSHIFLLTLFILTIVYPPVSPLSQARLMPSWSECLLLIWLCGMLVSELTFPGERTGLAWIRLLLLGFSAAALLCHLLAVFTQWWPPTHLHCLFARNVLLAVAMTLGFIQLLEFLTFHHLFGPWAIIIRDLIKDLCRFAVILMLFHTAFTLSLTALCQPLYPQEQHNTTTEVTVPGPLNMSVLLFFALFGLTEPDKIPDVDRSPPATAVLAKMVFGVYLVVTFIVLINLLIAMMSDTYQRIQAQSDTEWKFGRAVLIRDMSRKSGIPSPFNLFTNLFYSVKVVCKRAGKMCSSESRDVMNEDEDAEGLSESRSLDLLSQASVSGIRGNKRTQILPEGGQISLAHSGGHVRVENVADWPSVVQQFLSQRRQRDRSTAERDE

[11] = target: G-protein coupled receptor 35 (Homo sapiens, UniProt Q9HC97); assay: GPR35 antagonists blocking zaprinast-driven arrestin recruitment, primary screen, imaging, U2OS, beta-arrestin-GFP, zaprinast agonist (AID 2058); format: functional;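 note: antagonist potency meaning inhibition of agonist-induced arrestin redistribution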
[12] = inhibitors of intracellular T. cruzi replication, confirmation, NIH3T3 host cells, beta-gal luminescence (AID 2044); format: functional, cell-based;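 note: intracellular parasites grown in NIH/3T3 mouse fibroblasts as host cells; luminescent beta-galactosidase reporter signal from transgenic T. cruzi replicating inside host cells; inhibitors lower the luminescence signal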
[13] = growth suppression of PTEN-null colon cells, dose response, cell-based, HCT116 PTEN knockout (AID 1047); format: functional;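 note: HCT116 colon tumor cells with PTEN knocked out; cells exposed to compound for 60 hours before readout; potency for loss of cell viability measured by luminescence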
[14] = cytotoxicity toward NIH3T3 fibroblasts, dose response, counter-screen, cell-based, ATP luminescence, mouse fibroblasts (AID 2010); format: functional;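 note: cells exposed to compound for about 90 hours before reading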
[15] = growth suppression of beta-catenin-knockout colon cells, dose response, cell-based, HCT116, human colon tumor (AID 1045); format: functional;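 note: HCT116 colon tumor cells with beta catenin knocked out; cells exposed to compound for 60 hours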
[16] = target: T3, Sphingosine 1-phosphate receptor 4 (Homo sapiens, UniProt O95977); assay: Fluorescence dose response cell-based high throughput screening assay for antagonists of the Sphingosine 1-Phosphate Receptor 4 (S1P4). [Related pubchem assays: 1524 (Confirmation in triplicates.), 1510 (Primary screen.)]; format: functional
T3 sequence (O95977 whole entry): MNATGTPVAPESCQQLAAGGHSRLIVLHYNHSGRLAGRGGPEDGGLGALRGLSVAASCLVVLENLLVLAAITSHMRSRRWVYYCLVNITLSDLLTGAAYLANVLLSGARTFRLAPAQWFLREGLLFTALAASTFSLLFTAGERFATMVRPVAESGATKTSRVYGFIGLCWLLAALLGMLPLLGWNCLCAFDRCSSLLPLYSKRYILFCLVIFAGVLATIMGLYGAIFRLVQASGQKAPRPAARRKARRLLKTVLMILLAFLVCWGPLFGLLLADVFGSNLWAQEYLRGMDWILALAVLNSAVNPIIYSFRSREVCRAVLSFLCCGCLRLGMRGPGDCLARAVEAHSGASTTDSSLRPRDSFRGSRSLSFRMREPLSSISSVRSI

[17] = target: Sphingosine 1-phosphate receptor 1 (Homo sapiens, UniProt P21453); format: functional;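 note: Tango beta-arrestin reporter U2OS cells stimulated with S1P near its EC80; inhibitor potency meaning antagonism of receptor activation by the natural agonist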
[18] = target: T4, Alkaline phosphatase, tissue-nonspecific isozyme (Homo sapiens, UniProt P05186)
T4 sequence (P05186 whole entry): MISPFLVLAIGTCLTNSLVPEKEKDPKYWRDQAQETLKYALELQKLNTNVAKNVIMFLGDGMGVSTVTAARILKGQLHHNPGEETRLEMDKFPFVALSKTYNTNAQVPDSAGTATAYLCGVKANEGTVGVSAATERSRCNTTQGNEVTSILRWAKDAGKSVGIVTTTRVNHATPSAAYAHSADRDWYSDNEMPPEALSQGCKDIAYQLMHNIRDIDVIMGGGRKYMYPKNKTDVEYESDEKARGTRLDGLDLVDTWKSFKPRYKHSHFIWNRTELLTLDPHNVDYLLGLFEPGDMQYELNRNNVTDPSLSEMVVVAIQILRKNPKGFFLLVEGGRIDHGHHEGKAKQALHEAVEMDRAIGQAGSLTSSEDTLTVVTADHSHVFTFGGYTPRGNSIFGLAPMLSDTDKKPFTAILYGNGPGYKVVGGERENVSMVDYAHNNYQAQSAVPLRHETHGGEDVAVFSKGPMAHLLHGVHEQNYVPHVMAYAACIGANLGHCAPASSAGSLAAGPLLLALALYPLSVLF

[19] = target: Lysosomal acid glucosylceramidase (Homo sapiens, UniProt P04062); assay: Dose response cell-based high throughput screening assay to identify enhancers of beta-glucosidase activity. [Related pubchem assays: 784 ]; format: functional
Lysosomal acid glucosylceramidase, sequence (P04062 whole entry): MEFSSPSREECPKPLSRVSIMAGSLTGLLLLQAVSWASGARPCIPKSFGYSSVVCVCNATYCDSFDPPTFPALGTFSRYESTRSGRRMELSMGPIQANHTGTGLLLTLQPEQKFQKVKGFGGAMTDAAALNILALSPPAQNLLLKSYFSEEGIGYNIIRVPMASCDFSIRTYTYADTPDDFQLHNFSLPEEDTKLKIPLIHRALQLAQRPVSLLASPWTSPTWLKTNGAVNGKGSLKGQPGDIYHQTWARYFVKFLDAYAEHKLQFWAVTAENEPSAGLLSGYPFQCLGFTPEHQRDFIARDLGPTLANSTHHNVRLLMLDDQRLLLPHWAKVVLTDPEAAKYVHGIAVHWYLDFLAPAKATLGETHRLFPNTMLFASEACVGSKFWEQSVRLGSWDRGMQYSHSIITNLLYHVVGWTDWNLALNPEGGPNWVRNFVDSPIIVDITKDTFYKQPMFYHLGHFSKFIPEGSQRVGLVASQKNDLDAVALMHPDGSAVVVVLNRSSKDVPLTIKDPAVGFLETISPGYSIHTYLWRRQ

[20] = target: Nonstructural protein 1 (Influenza A virus, UniProt Q194T2); format: functional, Influenza A virus (A/California/07/2009(H1N1))
[21] = target: T5, Carboxy-terminal domain RNA polymerase II polypeptide A small phosphatase 1 (Homo sapiens, UniProt Q9GZU7); assay: inhibitors of CTDSP1, concentration-response testing, biochemical assay, absorbance-based, actives from ultra-high-throughput screening (AID 540297); format: functional
T5 sequence (Q9GZU7 whole entry): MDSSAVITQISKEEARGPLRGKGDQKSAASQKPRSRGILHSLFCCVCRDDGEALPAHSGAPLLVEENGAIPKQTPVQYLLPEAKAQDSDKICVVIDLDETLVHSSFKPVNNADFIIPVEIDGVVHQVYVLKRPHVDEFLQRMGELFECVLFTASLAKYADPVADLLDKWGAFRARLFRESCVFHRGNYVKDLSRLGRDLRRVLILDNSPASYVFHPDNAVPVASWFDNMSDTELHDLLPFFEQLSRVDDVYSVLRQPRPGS

[22] = target: Cytochrome P450 2D6 (Homo sapiens, UniProt P10635); assay: qHTS Assay for Inhibitors and Substrates of Cytochrome P450 2D6. [Related pubchem assays: 410 ]; format: ADME; conditions: read-out: Potency
[23] = target: Cytochrome P450 3A4 (Homo sapiens, UniProt P08684); conditions: Potency;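 note: confirmatory qHTS run detecting inhibitors and substrates of CYP3A4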
Cytochrome P450 3A4, sequence (P08684 whole entry): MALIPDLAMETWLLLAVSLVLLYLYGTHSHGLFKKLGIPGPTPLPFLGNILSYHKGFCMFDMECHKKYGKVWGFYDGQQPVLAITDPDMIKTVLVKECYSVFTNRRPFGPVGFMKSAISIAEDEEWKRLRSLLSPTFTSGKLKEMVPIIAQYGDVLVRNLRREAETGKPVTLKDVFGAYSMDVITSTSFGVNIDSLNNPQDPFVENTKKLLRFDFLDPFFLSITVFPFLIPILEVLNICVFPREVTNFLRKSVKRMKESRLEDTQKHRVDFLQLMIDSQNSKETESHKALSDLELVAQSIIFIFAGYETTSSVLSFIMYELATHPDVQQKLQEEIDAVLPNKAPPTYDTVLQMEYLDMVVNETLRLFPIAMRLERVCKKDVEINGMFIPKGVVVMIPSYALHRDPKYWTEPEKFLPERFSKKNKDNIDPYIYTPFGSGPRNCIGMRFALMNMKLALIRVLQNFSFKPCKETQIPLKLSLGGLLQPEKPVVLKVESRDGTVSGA

[24] = target: Cytochrome P450 2C9 (Homo sapiens, UniProt P11712); conditions: Potency
Cytochrome P450 2C9, sequence (P11712 whole entry): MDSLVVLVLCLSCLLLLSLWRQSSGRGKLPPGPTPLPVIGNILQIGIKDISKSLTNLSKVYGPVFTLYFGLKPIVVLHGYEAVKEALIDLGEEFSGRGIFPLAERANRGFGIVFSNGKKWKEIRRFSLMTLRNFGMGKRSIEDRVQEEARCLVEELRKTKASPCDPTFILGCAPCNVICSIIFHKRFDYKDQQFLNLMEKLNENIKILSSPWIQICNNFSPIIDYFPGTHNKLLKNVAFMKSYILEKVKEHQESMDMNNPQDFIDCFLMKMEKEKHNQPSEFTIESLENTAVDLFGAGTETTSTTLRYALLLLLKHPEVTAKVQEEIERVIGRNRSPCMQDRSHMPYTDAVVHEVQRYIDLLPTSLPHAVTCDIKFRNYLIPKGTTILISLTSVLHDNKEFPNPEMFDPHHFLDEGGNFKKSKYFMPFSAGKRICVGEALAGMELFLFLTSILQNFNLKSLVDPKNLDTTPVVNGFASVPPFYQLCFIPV

[25] = tested on: Escherichia coli; assay: microbe, parasite or virus in culture
[26] = target: Eukaryotic translation initiation factor 4H (Homo sapiens, UniProt Q15056); assay: human eIF4H binding inhibitors, primary screen, translation initiation inhibitor project, biochemical, uHTS, fluorescence polarization (AID 2012)
[27] = target: T6, Mannose-6-phosphate isomerase (Homo sapiens, UniProt P34949); assay: human PMI inhibitors, high substrate, primary screen, biochemical, fluorescence intensity, high mannose 6-phosphate (AID 1220)
T6 sequence (P34949 whole entry): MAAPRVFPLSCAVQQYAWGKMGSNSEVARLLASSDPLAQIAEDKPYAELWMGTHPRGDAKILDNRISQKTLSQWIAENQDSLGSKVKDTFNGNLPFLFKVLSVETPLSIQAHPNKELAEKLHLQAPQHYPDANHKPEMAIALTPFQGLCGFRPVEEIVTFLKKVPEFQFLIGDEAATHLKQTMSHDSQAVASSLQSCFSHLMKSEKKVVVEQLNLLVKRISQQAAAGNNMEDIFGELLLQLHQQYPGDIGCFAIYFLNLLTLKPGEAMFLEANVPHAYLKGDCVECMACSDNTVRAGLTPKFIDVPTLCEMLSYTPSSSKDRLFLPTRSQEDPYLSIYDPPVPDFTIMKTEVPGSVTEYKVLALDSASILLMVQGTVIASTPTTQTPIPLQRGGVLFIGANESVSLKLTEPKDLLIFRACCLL

[28] = target: Polyadenylate-binding protein 1 (Homo sapiens, UniProt P11940); assay: PABP poly(A) RNA binding inhibitors, primary screen, biochemical, fluorescence polarization, uHTS (AID 2014)
Polyadenylate-binding protein 1, sequence (P11940 whole entry): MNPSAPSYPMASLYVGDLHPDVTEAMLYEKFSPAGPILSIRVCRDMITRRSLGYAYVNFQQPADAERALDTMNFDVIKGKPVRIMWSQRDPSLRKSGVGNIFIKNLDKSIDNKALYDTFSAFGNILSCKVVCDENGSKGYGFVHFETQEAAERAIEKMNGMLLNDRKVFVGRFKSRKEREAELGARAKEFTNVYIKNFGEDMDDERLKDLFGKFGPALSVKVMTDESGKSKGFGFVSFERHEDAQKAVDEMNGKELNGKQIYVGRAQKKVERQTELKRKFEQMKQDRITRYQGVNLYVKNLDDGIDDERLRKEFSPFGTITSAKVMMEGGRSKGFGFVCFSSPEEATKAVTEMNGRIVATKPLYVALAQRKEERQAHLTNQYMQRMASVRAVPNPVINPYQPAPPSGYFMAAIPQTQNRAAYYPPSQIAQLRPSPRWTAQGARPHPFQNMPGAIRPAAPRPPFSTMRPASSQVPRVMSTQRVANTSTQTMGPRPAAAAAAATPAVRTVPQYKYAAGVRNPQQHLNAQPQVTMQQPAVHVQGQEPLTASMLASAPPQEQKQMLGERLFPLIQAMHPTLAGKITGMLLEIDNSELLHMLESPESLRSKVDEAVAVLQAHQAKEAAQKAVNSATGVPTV

[29] = target: Voltage-dependent T-type calcium channel subunit alpha-1H (Homo sapiens, UniProt O95180); format: functional;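 note: channel activity triggered by adding a high calcium stimulation buffer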
[30] = target: Melanin-concentrating hormone receptor 1 (Homo sapiens, UniProt Q99705); assay: Fluorescence-based counterscreen for antagonists of the G-protein coupled receptor 7 (GPR7): cell-based high throughput dose response assay to identify antagonists of the melanin-concentrating hormone receptor 1 (MCHR1).; format: functional

Aspartyl aminopeptidase, sequence (Q8I2J3 whole entry): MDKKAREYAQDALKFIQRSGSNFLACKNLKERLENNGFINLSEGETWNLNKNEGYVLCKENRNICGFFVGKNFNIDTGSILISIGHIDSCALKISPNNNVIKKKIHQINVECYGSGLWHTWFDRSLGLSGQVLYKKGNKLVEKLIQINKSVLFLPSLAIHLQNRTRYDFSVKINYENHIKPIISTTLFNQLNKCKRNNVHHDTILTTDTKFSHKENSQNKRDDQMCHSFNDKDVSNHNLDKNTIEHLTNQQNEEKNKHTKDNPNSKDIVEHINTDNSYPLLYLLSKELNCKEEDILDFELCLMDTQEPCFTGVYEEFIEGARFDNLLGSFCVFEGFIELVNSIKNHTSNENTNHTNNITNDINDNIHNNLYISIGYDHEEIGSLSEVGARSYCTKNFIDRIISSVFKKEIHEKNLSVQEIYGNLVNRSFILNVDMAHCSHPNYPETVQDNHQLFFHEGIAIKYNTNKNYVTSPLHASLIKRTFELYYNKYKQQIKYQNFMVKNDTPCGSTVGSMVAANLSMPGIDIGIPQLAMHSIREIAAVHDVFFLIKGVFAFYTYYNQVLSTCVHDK
Procathepsin L, sequence (P07711 whole entry): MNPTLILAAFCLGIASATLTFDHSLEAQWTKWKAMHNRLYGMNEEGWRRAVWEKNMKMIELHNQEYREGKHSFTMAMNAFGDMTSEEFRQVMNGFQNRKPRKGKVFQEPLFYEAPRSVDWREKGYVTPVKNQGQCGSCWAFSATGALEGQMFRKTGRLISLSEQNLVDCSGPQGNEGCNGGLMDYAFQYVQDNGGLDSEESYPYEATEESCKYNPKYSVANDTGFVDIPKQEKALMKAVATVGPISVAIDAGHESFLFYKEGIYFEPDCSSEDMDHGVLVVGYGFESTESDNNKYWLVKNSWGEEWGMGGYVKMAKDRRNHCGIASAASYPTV

COC(=O)CN(n1cnnc1)S(=O)(=O)c1ccc(C)cc1
IC50 [1]: 0.351 µM (active)
IC50 [2]: > 59.6 µM (not active)

CCn1c(O)c(N=NC(=O)c2cccs2)c2ccccc21
EC50 [3]: 43.6 µM (active)
IC50 [4]: 70.2 µM (active)
EC50 [5]: 1.09 µM (active)
EC50 [6]: > 180 µM (inactive)
EC50 [7]: 31.2 µM (active)

O=C(/C=C(\O)c1ccccc1)C(=O)NNC(=O)c1ccccc1
EC50 [8]: > 50 µM (active)

O=c1[nH]c(CSc2nnc[nH]2)nc2ccccc12
IC50 [1]: 0.833 µM (active)
IC50 [2]: > 59.6 µM (not active)

COc1ccc(S(=O)(=O)N2CCCCCC2)cc1N(C)S(=O)(=O)c1ccc(C)cc1
EC50 [9]: 6.7 µM (active)
EC50 [10]: > 29.9 µM (not active)

COc1cc(/C=C(/C)[N+](=O)[O-])ccc1OCc1ccccc1Cl
IC50 [11]: 2.45 µM (active)
EC50 [12]: 2.07 µM (active)
EC50 [13]: 8.96 µM (active)
EC50 [14]: 9.08 µM (active)
EC50 [15]: 8.05 µM (active)
IC50 [16]: 0.727 µM (active)
IC50 [17]: 7.64 µM (active)

CCCCN1CC(=O)C(c2nc3ccccc3[nH]2)=C1N
EC50 [18]: > 100 µM (not active)

CCCCOc1nc2ccccc2nc1C(C#N)S(=O)(=O)c1ccccc1 (configuration not stated)
EC50 [19]: > 50 µM (not active)

COc1ccc(S(=O)(=O)C(C#N)c2nc3ccccc3nc2N2CCCCC2)cc1 (configuration not stated)
EC50 [19]: > 50 µM (not active)

O=C1Nn2c(nc3c(c2=O)CCC3)/C1=N/Nc1cccc(Cl)c1
IC50 [4]: 83.9 µM (active)
IC50 [20]: > 100 µM (active)
IC50 [21]: 6.15 µM (active)

CC1CCC2C(=O)OC(CN3C(=O)c4ccccc4C3=O)CN2C1c1ccc(Br)cc1 (configuration not stated)
AC50 [22]: 3.16 µM (inconclusive)
AC50 [23]: 3.98 µM (inconclusive)
AC50 [24]: 3.16 µM (inconclusive)

CCn1cc(C(=O)O)c(=O)c2cc(F)c(N3CCNCC3)cc21 [NORFLOXACIN]
EC50 [8]: > 50 µM (active)
AC50 [25]: 1.33 µM (active)

CCOC(=O)OCC1OC(C#Cc2ccc(Br)cc2)C=CC1OC(=O)OCC (configuration not stated)
AC50 [23]: 3.98 µM (inconclusive)
AC50 [24]: 2.51 µM (inconclusive)

CCN1CCc2c(C#N)c(NCc3ccccc3)nc(NCCO)c2C1
IC50 [26]: > 100 µM (inactive)
IC50 [27]: > 50 µM (not active)
IC50 [28]: > 100 µM (inactive)

COCCn1c(N/N=C(C)/C=C/c2ccccc2)nc2c1c(=O)[nH]c(=O)n2C
EC50 [18]: > 100 µM (not active)

CCn1c(SCC(=O)N/N=C/C=C\c2ccco2)nc2ccccc21
IC50 [26]: 12.3 µM (active)
IC50 [28]: 68.8 µM (active)

Cc1ccc(S(=O)(=O)c2c(C)cc(C)nc2Oc2cccc(C(F)(F)F)c2)cc1
EC50 [9]: 5.23 µM (active)
EC50 [10]: > 29.9 µM (not active)
EC50 [29]: 7.06 µM (active)

CN1CCN(c2ccccc2NC(=O)Cc2ccc(Cl)cc2)CC1
IC50 [30]: 36 µM (not active)
